Source: PubChem BioAssay AID623931 (Vanderbilt Specialized Chemistry Center, 2012)

What was measured:
PubChem AID 623931 = details: Ricerca radioligand binding panel, % inhibition, at 10 µM, stronger effect = higher value
[1] = biological target: 5-hydroxytryptamine receptor 2B (Homo sapiens) (UniProt P41595); experiment: PubChem AID 623931; details: Ricerca radioligand binding panel, % inhibition; at 10 µM; stronger effect = higher value

Compound: COc1ccc(C#Cc2ccc(C(=O)N3CCC[C@@H](CO)C3)cc2)cc1
- inhibition (PubChem AID 623931; GABA-A muscimol site binding): 21%
- inhibition (PubChem AID 623931; K-ATP channel binding): 21%
- inhibition (PubChem AID 623931; adenosine A3 receptor binding): 44%
- inhibition (PubChem AID 623931; dopamine D3 receptor binding): 19%
- inhibition (PubChem AID 623931; dopamine transporter DAT binding): 88%
- inhibition (PubChem AID 623931; hERG potassium channel binding): 13%
- inhibition (PubChem AID 623931; imidazoline I2 binding): 35%
- inhibition (PubChem AID 623931; norepinephrine transporter NET binding): 28%
- inhibition (PubChem AID 623931; prostanoid EP4 receptor binding): 45%
- inhibition (PubChem AID 623931; purinergic P2Y binding): 23%
- inhibition (PubChem AID 623931; serotonin transporter SERT binding): 50%
- inhibition (PubChem AID 623931; sigma 1 receptor binding): 37%
- inhibition [1]: 71%
